US12472180B2, “Combinations for treatment of NAFLD/NASH and related diseases” (Pfizer Inc., priority 2020, dated 2025)
Structures can show the parent of a compound that is named as a salt.

Columns and labels:
[1] = system: Western diet fed Sprague Dawley rats; assay: Plasma triglycerides (fed and fasted) in Western diet fed Sprague Dawley rats; type: in vivo, rat; settings: 4 hour fast
Method: (§1) A randomized, vehicle-controlled, 8-parallel arm study was conducted in male Sprague-Dawley rats (Charles River (Boston, MA)) to obtain circulating and hepatic TG levels. Standard laboratory conditions were used to house 96 rats (˜200 g); they were double housed and kept under 12:12-hour reverse light-dark schedule (lights off at 8:00 AM). Rats were randomized into chow or Western diet groups and dose groups upon arrival and were given a 14-day lead-in period on either standard rat chow or Western diet prior to the start of the study. Standard Laboratory Rodent chow diet, 5053, was from LabDiet (PMI, St Louis, Missouri). Western Diet, D12079Bi, was from Research Diets (New Brunswick, NJ).
(§2) For these studies, vehicle was prepared to make a 0.5% (wt/volume) of methyl cellulose (MC, Sigma Aldrich; 274429) in deionized water.
Fed plasma analytes: Blood for determining fed plasma TG concentrations was collected 2 hours post dose (2 hours into the dark cycle) via lateral tail vein, transferred to BD Microtainer tubes coated with dipotassium ethylenediaminetetraacetic acid (K2EDTA) (PN365974), and centrifuged at 4° C. The resulting plasma samples were then analyzed on a Siemens Chemistry XPT clinical analyzer (Malven, PA) using Siemens triglycerides_2 assay reagents (ref 10335892).
Fasted plasma analytes: Blood for determining fasted plasma TG was collected after a 4 hour fast, 2 hours post-dose (2 hours into the dark cycle) via lateral tail vein, transferred to BD Microtainer tubes coated with K2EDTA (PN365974), and centrifuged at 4° C. The resulting plasma samples were then analyzed on a Siemens Chemistry XPT clinical analyzer (Malven, PA) using Siemens triglycerides 2 assay reagents (ref 10335892).

[2] = system: ACC1, FASN, SCD1, PCSK9 and SREBP-1c; assay: Hepatic lipogenic gene expression in Western diet fed rats (qPCR); type: in vivo, rat; settings: Compound A: ACC1, FASN (high dose only), SCD, but not PCSK9 and SREBP1
Method: as §1
On the last day of the study (Day 28), rats were sacrificed for tissue collection after a 4 hour fast, 2 hours post-dose: two hours post-dose, blood for determining plasma analytes was collected via lateral tail vein and then the animals were sacrificed by CO2 asphyxiation. Blood was transferred to BD Microtainer tubes coated with K2EDTA (PN365974), centrifuged at 4° C. and the plasma transferred to a 96-well microtitre plate and stored at −20° C. […]
Another portion of the pulverized liver was processed and analyzed for lipogenic gene expression. Rat taqman probes against ACC1, FASN, SCD1, PCSK9 and SREBP-1c were all assessed using Actb as housekeeping gene on qPCR.

[3] = system: Western diet fed Sprague Dawley rats; assay: Hepatic triglyceride (steatosis) in Western diet fed rats; type: in vivo, rat; settings: or both, Day 28
Method: as §1, §2
On the last day of the study (Day 28), rats were sacrificed for tissue collection after a 4 hour fast, 2 hours post-dose: two hours post-dose, blood for determining plasma analytes was collected via lateral tail vein and then the animals were sacrificed by CO2 asphyxiation. Blood was transferred to BD Microtainer tubes coated with K2EDTA (PN365974), centrifuged at 4° C. and the plasma transferred to a 96-well microtitre plate and stored at −20° C. Livers were rapidly removed, freeze-clamped in a Wollenberg clamp pre-cooled in liquid N2 individually wrapped in aluminum foil and subsequently stored at −80° C.
Tissue pulverization: Frozen livers were rapidly pulverized on an aluminum block cooled in liquid N2, ensuring the tissue remained frozen throughout the pulverization. The pulverized tissues were transferred and stored in 7 mL polypropylene conical tubes at −80° C. until analysis.
Extraction for hepatic triglyceride: Approximately 50 to 100 mg of pulverized tissue was added to a 2 mL lysing matrix D tube (MP Bio) containing 800 μL ice cold 1:1 CHCl3:MEOH. Samples were immediately extracted at 4° C. using Qiagen Tissue Lyser II (Qiagen Cat No. 85300) for 4 minutes at 30 Hz. The homogenate was then transferred to 13×100 mm glass tubes and placed on ice. The lysis tubes were then rinsed with 800 μL of 1:1 CHCl3:MeOH, vortexed for 30 seconds and added to the 13×100 mm glass tubes. While on ice, 2.4 ml of 100% CHCl3 was added to all glass vials to bring the ratio of CHCl3:MeOH to 4:2. Samples were then placed in the −20° C. freezer overnight. On the following day, 1.75 mL 1M KCl H2O was added to bring the ratio to 4:2:1.75 ratio CHCl3:MeOH:H2O. Samples were then vortexed for 30 seconds and centrifuged at 1500 rpm×15 min., at 4° C. After centrifugation, the organic phase was transferred to a fresh 13×100 mm extraction tube, dried down at 37° C. under N2 and re-suspended in 750 μL CHCl3. […]

SREBP-1 = assay: Nuclear SREBP-1 localization in liver of Western diet fed rats (Western blot); type: in vivo, rat; settings: high dose monotherapy (A 10 mg/kg QD; D 30 mg/kg BID); pooled liver samples
Method: as §1, with “NJ). […]” for “NJ).”
Nuclear and Membrane fractions were prepared by ultracentrifugation using standard methods from a portion of the pulverized liver samples, that were pooled per treatment group. Samples from the nuclear extract and the membrane fractions were analyzed by Western blotting for SREBP1. […] Nuclear SREBP1 levels were quantified using relative units and normalized to Histone 2B to control for sample loss during the nuclear fractionation and gel loading.

αSMA and COL1A1 = assay: Hepatic fibrogenesis gene expression in CDAHFD fed rats (qPCR); type: in vivo, rat; settings: A 5 mg/kg, D 30 mg/kg twice daily, 6 weeks
From the text: Standard laboratory conditions were used to house 60 rats (˜200 g); they were double housed and kept under 12:12-hour reverse light-dark schedule (lights off at 8:00 AM). Rats were fed choline deficient and high fat diet (CDAHFD) beginning 6-weeks prior to initiation of the study. […] Animals (n=12) remaining on normal chow throughout the study and administered twice-daily vehicle were used as a control group. Blood samples were collected prior to starting compound administration and 3- and 6-week post compound administration for the assessment of circulating markers. Shearwave elastography (Aixplorer Ultimate imager, Supersoinc imagine) measurements were made at Week −3, Week 0 (prior to 1st dose), Week 3 and Week 6 to assess inflammation and fibrosis progression over time. Histology was assessed following 6-weeks of drug administration which corresponded to 12 weeks on the CDAHFD. Results are provided as an average of animals per each dosing group.
Following the 12-weeks on CDAHFD, the animals were sacrificed by CO2 asphyxiation. The right lateral, medial and left lateral lobes of the liver were harvested. Sections were taken from the left lateral, right medial and right lateral lobes and fixed in formalin and processed to paraffin blocks per animal. One section of left lateral lobe per animal was cryopreserved in optimal cutting temperature (OCT) compound. The remainder of the liver from each animal was frozen and rapidly pulverized on an aluminum block cooled in liquid N2, ensuring the tissue remained frozen throughout the pulverization. The pulverized tissue was transferred and stored at −80° C. until analysis. A portion of the pulverized liver sample from each animal was processed and analyzed for gene expression markers of fibrogenesis. Rat taqman probes against αSMA and COL1A1 were all assessed using Actb as housekeeping gene on qPCR.

[4] = Thermodynamic stability of crystalline forms versus water activity; type: physicochemical; settings: ambient temperature; about 0.2 = 20% RH
[5] = high dose: A 10 mg/kg QD, D 30 mg/kg BID
[6] = low dose: A 1 mg/kg QD, D 5 mg/kg BID

Compound	increase in fasted plasma TG, relative to vehicle administered Western diet fed rats ([1]; high dose: Compound A 10 mg/kg QD monotherapy) [fold]	increase in fasted plasma TG, relative to vehicle administered Western diet fed rats ([1]; low dose: Compound A 1 mg/kg QD monotherapy) [fold]	hepatic lipogenic gene expression (ACC1, FASN, SCD1, SREBP-1c, PCSK9) relative to Western diet fed vehicle treated animals [2]	reduction in steatosis (hepatic triglyceride), relative to vehicle administered Western diet fed rats [3, 5] [%]	reduction in steatosis (hepatic triglyceride), relative to vehicle administered Western diet fed rats [3, 6] [%]	nuclear SREBP-1 localization relative to vehicle treated Western diet fed rats (SREBP-1)	hepatic COL1A1 gene expression (αSMA and COL1A1)	hepatic αSMA gene expression (αSMA and COL1A1)	reduction of fasted plasma TG, relative to vehicle administered Western diet fed rats ([1]; high dose: Compound D 30 mg/kg BID monotherapy) [%]	reduction of fasted plasma TG, relative to vehicle administered Western diet fed rats ([1]; low dose: Compound D 5 mg/kg BID monotherapy) [%]	water activity at which the form is thermodynamically stable [4]
COc1cc(C(=O)N2CCC3(CC2)CC(=O)c2c(cnn2C(C)C)C3)cc(-c2ccc(C(=O)O)cc2)n1 [Compound A, 4-(4-(1-isopropyl-7-oxo-1,4,6,7-tetrahydrospiro[indazole-5,4′-piperidine]-1′-carbonyl)-6-methoxypyridin-2-yl)benzoic acid]	1.7	2.4	trended to further increase	53	36	increased nuclear localization of SREBP-1	reduced hepatic αSMA and COL1A1 gene expression	reduced hepatic αSMA and COL1A1 gene expression			
CCOc1cccnc1Oc1cncc(-c2ncc(C(=O)N[C@H]3CCOC3)cn2)c1 [Compound D, (S)-2-(5-((3-ethoxypyridin-2-yl)oxy)pyridin-3-yl)-N-(tetrahydrofuran-3-yl)pyrimidine-5-carboxamide]			decreased expression of all of the lipogenic genes	30	25	reduced SREBP-1 nuclear localization	reduced hepatic αSMA and COL1A1 gene expression	reduced hepatic αSMA and COL1A1 gene expression	35	20	
COc1cc(C(=O)N2CCC3(CC2)CC(=O)c2c(cnn2C(C)C)C3)cc(-c2ccc(C(=O)O)cc2)n1 [Form 1 of Compound A, 4-(4-(1-isopropyl-7-oxo-1,4,6,7-tetrahydrospiro[indazole-5,4′-piperidine]-1′-carbonyl)-6-methoxypyridin-2-yl)benzoic acid anhydrous tris salt]											< 0.2
COc1cc(C(=O)N2CCC3(CC2)CC(=O)c2c(cnn2C(C)C)C3)cc(-c2ccc(C(=O)O)cc2)n1 [Form 2 of Compound A]											> 0.2
